Test system: VA-ES-BJ tumor spheroid viability
Assay: Anticancer human tumor VA-ES-BJ cell line growth inhibition;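 further: spheroids exposed to compounds for seven days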;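 on viability, T/C: percent of DMSO vehicle control viability so 100% = untreated growth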
Conditions: spheroids with HUVEC and MSC; for IC50: curve of first compound; for viability, T/C: stronger effect = lower value
Source text: Multicellular complex tumor spheroid response to DNA repair inhibitors in combination with DNA-damaging drugs
This study explores the anticancer activities of DNA-damaging drugs and inhibitors of DNA damage repair, both as single agents and in combinations. Complex tumor spheroids comprised of malignant cells, endothelial cells and mesenchymal stem cells served as an in vitro model for human solid tumors. This model system incorporates physiologically relevant features and patient-derived or established malignant cell lines with clinically relevant genetic alterations from many tumor types. Twenty-six patient-derived or established malignant cell lines were evaluated representing sarcoma, melanoma, small cell lung cancer (SCLC), non-small cell lung cancer (NSCLC), as well as bladder, ovarian and pancreatic cancers. The concentration ranges selected for each drug and investigational agent were based upon clinically achievable concentrations if the clinical Cmax of the agent was known.
Compounds. The drugs and compounds olaparib (NSC753686), talazoparib (NSC767125), berzosertib (NSC777718), elimusertib (NSC800525), nedisertib (NSC802822), VX-984 (NSC792969), AZD-1390 (NSC803789), temozolomide (NSC362856), topotecan (NSC609699), trabectedin (NSC813783), staurosporine (NSC755774), and gemcitabine (NSC613327) were obtained from the National Cancer Institute (NCI) Developmental Therapeutics Program Chemical Repository. The FDA-approved anticancer drug set is available from the Developmental Therapeutics Program at https://dtp.cancer.gov/organization/dscb/obtaining/available_plates.htm. […] The stock solutions were prepared in dimethyl sulfoxide (DMSO, Sigma-Aldrich, St. Louis, MO, cat. D2650) at 400-fold the tested concentration and stored at -70 degrees C. Prior to their use, the stock solutions were diluted in fresh medium and the final DMSO concentration in the assay was 0.25% (v/v). All drugs and investigational agents were tested over a range starting from a high concentration at or near the clinical Cmax and decreasing in half-log increments. If the clinical Cmax for an agent had not been determined, the highest concentration tested was 10 microM.
Cell Lines. The patient-derived cancer cell (PDC) lines: 156681-154-R-J1-PDC, 283228-195-R-J1-PDC, 287954-098-R-J1-PDC, 292921-168-R-J2-PDC, 349418-098-R-PDC, 425362-245-T-J1-PDC, 556581-035-R-J1-PDC, and BL0293-F563-PDC were received from the NCI Patient-Derived Models Repository (PDMR, https://pdmr.cancer.gov). The established cell lines HS-SY-2 (RRID:CVCL_8719), MPNST, and SYO-1 (RRID:CVCL_7146) were obtained from the Sloan Kettering Institute. The alveolar soft parts sarcoma cell line ASPS-1 (RRID:CVCL_S738) was established at the NCI and grown from internal seed stocks. The following established cell lines were purchased from the American Type Culture Collection (ATCC, Manassas, VA): G-401 (ATCC, cat. CRL-1441, RRID:CVCL_0270), SW982 (ATCC, cat. HTB-93, RRID:CVCL_1734), VA-ES-BJ (ATCC, cat. CRL-2138, RRID:CVCL_1785), NCI-H719 (ATCC, cat. CRL-5837, RRID:CVCL_1582), NCI-H196 (ATCC, cat. CRL-5823, RRID:CVCL_1509), NCI-H841 (ATCC, cat. CRL-5845, RRID:CVCL_1595), NCI-H1618 (ATCC, cat. CRL-5879, RRID:CVCL_1480), NCI-H1876 (ATCC, cat. CRL-5902, RRID:CVCL_1503), DMS 114 (ATCC, cat. CRL-2066; RRID:CVCL_1174), NCI-H211 (ATCC, cat. CRL-5824; RRID:CVCL_1529), and SW 1271 (ATCC, cat. CRL-2177, RRID:CVCL_1716). The small cell lung cancer cell line COR-L88 was purchased from Sigma-Aldrich (cat. 92031917-1VL, RRID:CVCL_1141). The non-small cell lung cancer cell lines NCI-H226 (RRID:CVCL_1544) and NCI-H322M (RRID:CVCL_1557) were established at the NCI and grown from internal seed stocks. Pooled donor human umbilical vein endothelial cells (HUVEC, Lonza, cat. CC-2519) and human mesenchymal stem cells (hMSC, Lonza, cat. PT-2501) were purchased from Lonza (Walkersville, MD).
Cell Culture. All cells were maintained in an incubator at 37 degrees C and 5% CO2 with 95% humidity. […]

[1] = second compound 0.003 µM, first compound 0.0949 µM
[2] = second compound 0.003 µM, first compound 0.3 µM
[3] = second compound 0.003 µM, first compound 0.949 µM
[4] = second compound 0.003 µM, first compound 3 µM
[5] = second compound 0.00949 µM, first compound 0.0949 µM
[6] = second compound 0.00949 µM, first compound 0.3 µM
[7] = second compound 0.00949 µM, first compound 0.949 µM
[8] = second compound 0.00949 µM, first compound 3 µM
[9] = second compound 0.03 µM, first compound 0.0949 µM
[10] = second compound 0.03 µM, first compound 0.3 µM
[11] = second compound 0.03 µM, first compound 0.949 µM
[12] = second compound 0.03 µM, first compound 3 µM
[13] = second compound 0.0949 µM, first compound 0.0949 µM
[14] = second compound 0.0949 µM, first compound 0.3 µM
[15] = second compound 0.0949 µM, first compound 0.949 µM
[16] = second compound 0.0949 µM, first compound 3 µM
[17] = second compound 0.3 µM, first compound 0.0949 µM
[18] = second compound 0.3 µM, first compound 0.3 µM
[19] = second compound 0.3 µM, first compound 0.949 µM
[20] = second compound 0.3 µM, first compound 3 µM

Compound	IC50 (second compound 0.003 µM)	IC50 (second compound 0.00949 µM)	IC50 (second compound 0.03 µM)	IC50 (second compound 0.0949 µM)	IC50 (second compound 0.3 µM)	viability, T/C [1]	viability, T/C [2]	viability, T/C [3]	viability, T/C [4]	viability, T/C [5]	viability, T/C [6]	viability, T/C [7]	viability, T/C [8]	viability, T/C [9]	viability, T/C [10]	viability, T/C [11]	viability, T/C [12]	viability, T/C [13]	viability, T/C [14]	viability, T/C [15]	also measured
Cn1ncnc1[C@H]1c2n[nH]c(=O)c3cc(F)cc(c23)N[C@@H]1c1ccc(F)cc1 + CC[C@@]1(O)C(=O)OCc2c1cc1n(c2=O)Cc2cc3c(CN(C)C)c(O)ccc3nc2-1	150 nM	< 9.49 nM	< 9.49 nM	< 9.49 nM	< 9.49 nM	57.9%	44.7%	22.9%	5.42%	28.4%	21%	10.6%	6.84%	7.12%	6.39%	4.2%	3.72%	8.32%	8.9%	4.82%	viability, T/C (second compound 0.003 µM, first compound 0.00949 µM): 70.4%; viability, T/C (second compound 0.003 µM, first compound 0.03 µM): 54.7%; viability, T/C (second compound 0.00949 µM, first compound 0.00949 µM): 43.9%; viability, T/C (second compound 0.00949 µM, first compound 0.03 µM): 33.5%; viability, T/C (second compound 0.03 µM, first compound 0.00949 µM): 9.86%; viability, T/C (second compound 0.03 µM, first compound 0.03 µM): 8.29%; viability, T/C (second compound 0.0949 µM, first compound 0.00949 µM): 7.58%; viability, T/C (second compound 0.0949 µM, first compound 0.03 µM): 7.39%; viability, T/C [16]: 3.16%; viability, T/C (second compound 0.3 µM, first compound 0.00949 µM): 9.11%; viability, T/C (second compound 0.3 µM, first compound 0.03 µM): 9.07%; viability, T/C [17]: 8.75%; viability, T/C [18]: 9.02%; viability, T/C [19]: 8.91%; viability, T/C [20]: 7.66%
O=C(c1cc(Cc2n[nH]c(=O)c3ccccc23)ccc1F)N1CCN(C(=O)C2CC2)CC1 + CC[C@@]1(O)C(=O)OCc2c1cc1n(c2=O)Cc2cc3c(CN(C)C)c(O)ccc3nc2-1	12000 nM	2080 nM	< 94.9 nM	< 94.9 nM	< 94.9 nM	79.5%	86.5%	84.7%	72.9%	54.4%	62%	56.3%	46%	11.3%	11.9%	11.7%	8.85%	6.59%	7.45%	7.51%	viability, T/C (second compound 0.003 µM, first compound 9.49 µM): 54.3%; viability, T/C (second compound 0.003 µM, first compound 30 µM): 35.1%; viability, T/C (second compound 0.00949 µM, first compound 9.49 µM): 30.9%; viability, T/C (second compound 0.00949 µM, first compound 30 µM): 13.7%; viability, T/C (second compound 0.03 µM, first compound 9.49 µM): 4.72%; viability, T/C (second compound 0.03 µM, first compound 30 µM): 3.5%; viability, T/C [16]: 7.62%; viability, T/C (second compound 0.0949 µM, first compound 9.49 µM): 6.91%; viability, T/C (second compound 0.0949 µM, first compound 30 µM): 2.51%; viability, T/C [17]: 7.75%; viability, T/C [18]: 8%; viability, T/C [19]: 8.29%; viability, T/C [20]: 8.19%; viability, T/C (second compound 0.3 µM, first compound 9.49 µM): 7.94%; viability, T/C (second compound 0.3 µM, first compound 30 µM): 4.56%
